Measured values from patent publication US20250275946A1, “COMBINATION THERAPY FOR THE TREATMENT OF CANCER” (UNM RAINFOREST INNOVATIONS, priority 2021, published 2025).
Like-named read-outs stand apart in the source and are kept apart here.

Columns and labels:
[1] = tested on: MC38 cells; test: Immunoblotting analysis in MC38 cells; type: cell-based, murine; conditions: MC38, 10 μM DFX and/or 10 μM 5-FU, 48 hours, FIG. 7Q
Procedure: (§1) Human HCT116, RKO, SW480, HEK293T and murine MC38 CRC cells were maintained at 37° C. in 5% CO2 and cultured in Dulbecco's modified Eagle medium (DMEM) supplemented with 10% fetal bovine serum (FBS) and 1% penicillin and streptomycin (VWR, Radnor, PA). HCT116 p53+/+ and p53−/− cells were a kind gift from Professor Bert Vogelstein at the Johns Hopkins University. For generating stable cell lines, MC38 cells were transfected with a mouse shTFRC plasmid (TRCN0000375695, Sigma, St. Louis, MO) or a mouse shPOLD1 plasmid (TRCN0000428858, Sigma), RKO cells were transfected with a human shPOLD1 plasmid (TRCN0000007924, Sigma) and selected with 1 μg/ml puromycin.
Cells and tumor tissues were lysed with radioimmunoprecipitation assay buffer. After incubation, cell extracts were centrifuged and the supernatant was collected for Bradford assay to quantify protein concentration by a BioTek Synergy HTX Multi-Mode Microplate Reader (BioTek, Winooski, VT). Equal amounts (20-50 μg) of protein were loaded for sodium dodecyl sulfate polyacrylamide gel electrophoresis (SDS-PAGE). The proteins inside the gels were transferred onto nitrocellulose membrane with a wet transfer method. The membranes were blocked with 3% milk for 1 hour. Primary antibodies were incubated overnight. Secondary antibodies were incubated for 1 hour. […]

[2] = tested on: MC38 cells; test: MTT assay in MC38 cells; type: cell-based, murine; conditions: MC38, 10 μM DFX and/or 10 μM 5-FU, 48 hours, FIG. 7P
Procedure: as §1
(§2) Cells were plated at a concentration of 5×10^4 cells/mL in a 24 well plates. 125 μL 5 mg/mL MTT (Sigma, MO) was added to each plate and incubated for 30 min. Dimethyl sulfoxide (DMSO) was added and absorbance was measured at 570 nm using a BioTek Synergy HTX Multi-Mode Microplate Reader.

[3] = tested on: xenografts from MC38 cells; test: Subcutaneous MC38 xenograft combination therapy in C57BL/6 mice; type: in vivo; conditions: 20 mg/kg DFX every other day, 1 mg/kg 5-FU daily, or combination, FIG. 7R
Procedure: For subcutaneous xenograft study, 1×10^6 syngeneic MC38 cells with Tfrc or Pold1 knockdown were injected into the flanks of C57BL/6 mice. Two weeks later, mice were sacrificed and tumors were collected. For combination therapy, when tumors are palpable at one week after subcutaneous injection of MC38 cells, C57BL/6 mice were treated with vehicle, 20 mg/kg DFX for every other day, 1 mg/kg 5-fluorouracil (5-FU) daily, or the combination of DFX and 5-FU.

[4] = tested on: HCT116, SW480 or RKO cancer cells; test: Immunoblotting analysis in human colon-derived cancer cells; type: cell-based
Procedure: as §1
Cells and tumor tissues were lysed with radioimmunoprecipitation assay buffer. After incubation, cell extracts were centrifuged and the supernatant was collected for Bradford assay to quantify protein concentration by a BioTek Synergy HTX Multi-Mode Microplate Reader (BioTek, Winooski, VT). Equal amounts (20-50 μg) of protein were loaded for sodium dodecyl sulfate polyacrylamide gel electrophoresis (SDS-PAGE). The proteins inside the gels were transferred onto nitrocellulose membrane with a wet transfer method. The membranes were blocked with 3% milk for 1 hour. Primary antibodies were incubated overnight. Secondary antibodies were incubated for 1 hour. Antibodies for ferritin heavy chain (FTH1, #3998), IRP2 (#37135), active beta catenin (#8814), Anti-rabbit IgG HRP-linked Antibody (#7074) and Anti-mouse IgG HRP-linked Antibody (#7076) were from Cell signaling Technology (Danvers, MA). Primary antibodies for TFRC (sc-393719), HIF-1α, (sc-13515), HIF-2a (sc-13596), pS6 (sc-514033), pS6K (sc-8418), RRM2 (sc-398294), p-p53 (sc-377567), p53 (sc-6243), c-MYC (sc-40), GAPDH (sc-47724), Cyclin D1 (sc-718) and Actin (sc-8432) were from Santa Cruz Biotechnology (Dallas, TX). p-RPA2 (PA5-39809) was from Invitrogen (Carlsbad, CA). POLD1 (15646-1-AP), p-CHK1 (28805-1-AP), E2F1 (66515-1-Ig), Axin2 (20540-1-AP) and TNKS (18030-1-AP) were from Proteintech (Rosemont, IL).

[5] = tested on: patient-derived tumor colonoids; test: RNA-seq analysis of patient-derived tumor colonoids treated with DFO; type: cell-based, human; conditions: DFO 100 μM in KGMG medium, 4 days
Procedure: The adenoma colonoids culture was described previously. See Xue, et al., Cell Metab, 2016; 24: pp. 447-461). The culture plates were placed in a 37° C. incubator for 30 min to solidify the Matrigel, followed by the addition of 1 mL serum-free Keratinocyte Growth Media Gold (KGMG, Catalogue: 00195769, Lonza, Basel, Switzerland). After 24 hours of plating, colonoids were treated with DFO (0 or 100 μM) in KGMG for 4 days with fresh media change every other day. At the end of the experiment, culture media was aspirated off, and colonoids were lysed with Trizol to extract RNA.
RNA sequencing libraries were prepared using the TruSeq RNA library prep kit v2 (Illumina) following the manufacturer's recommended protocol. The libraries were sequenced using single-end 50-cycle reads on a HiSeq 4000 sequencer (Illumina) at the University of Michigan DNA Sequencing Core Facility. Raw sequencing read quality was assessed utilizing FastQC. Reads were aligned to the reference human transcriptome (UCSC) using STAR 2.5.2a. Default parameters were used for the alignment, with the exception of “--outFilterMultimapNmax 10” and “--sjdbScore 2”. Expression quantification and differential expression analysis between DFO and control tumor colonoids were conducted using CuffDiff v 2.1.1 using default settings. […]

[6] = cited from earlier work
[7] = mice; cited from earlier work
[8] = tested on: advanced hepatocellular carcinoma; conditions: cohort of 10 advanced hepatocellular carcinoma; cited from earlier work
[9] = tested on: SW480 cells; test: MTT assay in SW480 cells; type: cell-based, human; conditions: 48 hours
Procedure: as §1, §2

[10] = humans; cited from earlier work
[11] = tested on: B-family DNA polymerases; conditions: aphidicolin combined with CHK1 inhibitors; cited from earlier work
[12] = tested on: cancer cells; conditions: cited from earlier work
[13] = tested on: MC38 cells; test: Ferro-Orange staining of cellular ferrous iron; type: cell-based, murine; conditions: FIG. S6D
Procedure: Cells (2×10^5 cells/well) were plated into 24 well plates. After seeding, pre-warmed DMEM containing 0.5 μM ferroOrange (dojindo, Rockville, MD), was incubated at 37° C. for 30 min. After incubation, the cell images were taken. Representative images were taken using the RFP channel of an Invitrogen™ EVOS™ FL Auto Imaging System (Thermo Fisher Scientific, Waltham, MA). Fluorescence intensity was quantified using a SpectraMax M2 Microplate Reader (Molecular Devices, Radnor, PA) at excitation 543 nm and emission 580 nm. The intensity was normalized with protein concentrations.

In the case of `O=c1[nH]cc(F)c(=O)[nH]1` [5-FU, 5-fluorouracil], the “DDR of DFX (immunoblotting)” value [1] is reported as “potentiated”, the “growth suppressive effect of DFX in vitro (MTT)” value [2] is reported as “potentiated” and the “growth suppressive effect of DFX in vivo (tumor weight)” value [3] is reported as “potentiated”.
In the case of `CCc1ccc(/C=C2/SC(=S)NC2=O)cc1` [10058-F4], the “E2F1 and POLD1 protein” value ([4]; SW480 cells, c-Myc inhibitor overnight, FIG. S5G) is reported as “reduced”.
For `CC(=O)N(O)CCCCCNC(=O)CCC(=O)N(O)CCCCCNC(=O)CCC(=O)N(O)CCCCCN` [DFO, deferoxamine], the “decrease of POLD1 gene expression (RNA-seq)” value [5] is given as 4.31 fold, the “decrease of RRM2 gene expression (RNA-seq)” value [5] is given as 3.28 fold and the circulation half-life ([6]; humans) is given as “approximately 20 min”. For the same molecule, the “circulation half-life” value ([6]; in vivo) was “extremely short”, the circulation half-life [7] was roughly 5 min and the severe adverse events [8] was “without severe adverse events”.
In the case of `COc1cccc(OCCCN)c1-c1cc(Nc2cnc(C#N)cn2)n[nH]1` [Prexasertib], the “synergistic effect on cell growth (MTT)” value ([9]; SW480, 10 μM DFO and/or 100 nM Prexasertib, FIG. S7F) is reported as “synergistic effect was further validated”.
In the case of `CNCc1ccc(-c2cc(-c3nc(-c4ccc(S(=O)(=O)C(C)C)cc4)cnc3N)on2)cc1` [VE-822], the “synergistic effect on cell growth (MTT)” value ([9]; SW480 and MC38 cells, 10 μM DFX, 10 uM VE-822 or 100 nM Prexasertib, FIG. S7G, S7H) is reported as “synergistic effect was further validated”.
In the case of `Oc1nc(-c2ccc(C(F)(F)F)cc2)nc2c1CSCC2` [XAV939], the “suppressive effect of DFO on c-Myc, E2F1, POLD1 and Cyclin D1” value ([4]; SW480 cells, DFO and/or XAV939, FIG. 5N) is reported as “potentiated”, the “expression of TNKS and Axin2” value ([4]; SW480 cells, FIG. 5N) is reported as “increased” and the “iron-repressed Axin2” value ([4]; SW480 cells, FS and/or XAV939, FIG. 5O) is reported as “rescued”. The “c-Myc, E2F1, POLD1 and Cyclin D1 protein” value ([4]; SW480 cells, even with iron supplementation, FIG. 5O) was “suppressed”.
In the case of `C[C@@]1(CO)[C@H](O)CC[C@@]2(C)[C@H]1CC[C@H]1C[C@@H]3C[C@@]12CC[C@]3(O)CO` [aphidicolin], the toxicity [10] is given as “too toxic to be used in humans” and the cancer cell proliferation [11] is given as “synergistic inhibition”.
In the case of `c1ccc(CNC2CC(NCc3ccccn3)CC(NCc3ccccn3)C2)nc1` (stereo not drawn) [tachpyridine, N,N′,N″-tris(2-pyridylmethyl)-cis,cis-1,3,5-triaminocyclohexane], the “sensitivity to ionizing radiation induced DNA damage” value ([12]; cancer cells (not noncancer cells)) is given as “sensitizes cancer cells” and the cell cycle ([12]; via ATR-dependent activation of CHK1) is given as “induces G2 cell cycle arrest”.
In the case of ferrous sulfate [FS], the “rescue of DFO-decreased POLD1” value ([4]; HCT116 cells, 100 μM DFO and different doses of FS, FIG. 5E) is reported as “can rescue” and the “orange fluorescence signal (cellular ferrous iron)” value [13] is reported as “greatly increased”.
